Assay results as given in patent publication US12297197B2, “Pyrazolopyridine compound as RET inhibitor and application thereof” (GUANGZHOU BAIYUNSHAN PHARMACEUTICAL HOLDINGS CO., LTD. …, priority 2019, dated 2025).
pIC50: −log10 of the molar value.

Tests used:
RET kinase = RET kinase (Homo sapiens, UniProt P07949); assay: In-vitro enzyme activity test, RET kinase; type: biochemical; details: ATP 20 μM; 10 concentrations 3 μM to 0.152 nM
Method: (§1) The enzyme activity was detected by a Z′-LYTE™ kinase test, and inhibitory effects of the compounds onRET and RET (V804M) kinases were evaluated with an ICs value of each compound as an index.
(§2) The compounds used for RET and RET (V804M) kinase tests were diluted 3-fold, in 10 concentration gradients ranging from 3 μM to 0.152 nM; and the content of DMSO in detection reaction was 1%.
(§3) Basic reaction buffer, 20 mM 4-(2-hydroxyethyl)piperazine-1-ethanesulfonic acid (Hepes) buffer (pH 7.5), 10 mM MgCl2. 1 mM 1,2-bis[2-[bis(carboxymethyl)amino]ethoxy]ethane (EGTA), 0.02% polyoxyethylene lauryl ether (Brij35), 0.02 mg/mL bovine serum albumin, 0.1 mM of Na3VO4, 2 mM dithiothreitol (DTT) and 1% DMSO.
(§4) The compounds to be tested were dissolved in a 100% DMSO system to be diluted to 10 mM for further use. The solution was diluted by using Integra Viaflo Assist.
(§5) Test conditions: concentrations of RET kinase, peptide substrate CHKtide and adenosine triphosphate (ATP) were […], 1000 μM and 20 μM, respectively, and concentrations of RET (V804M) kinase, substrate peptide and ATP were […], 1000 μM and 30 μM, respectively.
(§6) Reaction process: compound solutions of different concentrations were added to a kinase/peptide solution prepared according to the test conditions, the obtained solution was incubated at room temperature for 20 minutes, and then 33P-ATP of corresponding concentrations were added, and the obtained solution was incubated at room temperature for 120 minutes. The radioactivity was detected by a filter-binding method.
(§7) The reaction was terminated by adding phosphoric acid (concentration, 0.5%) into a kinase reaction solution, and plate reading was carried out with an Envision instrument.
(§8) Data were converted into phosphorylation rate and inhibition rate, and the parametric curve was fitted by using GraphPad Software to obtain IC50 data of the compounds.

[1] = system: Ba/F3-CCDC6-RET cell allograft tumor model; assay: Tumor growth inhibition (TGI) in Ba/F3-CCDC6-RET cell allograft tumor model; type: in vivo, BALB/c nude female mouse
Method: Ba/F3-CCDC6-RET cell line was cultured in a 1640 medium (Biological Industries)+10% fetal bovine serum (BI)+1% Penicillin Streptomycin solution (Coring, USA) at 37° C. in a 5% CO2 incubator, with passage treatment twice a week Cells were collected when the cell saturation was 80%-90%, subjected to cell counting, and then inoculated subcutaneously into the right armpit of each BALB/c nude female mouse (6-8 weeks old). After inoculation, tumor growth was observed day by day. When the average tumor volume reached 165.77 mm^3, mice were randomly divided into groups according to the tumor volume, with 6 mice in each group, and then the mice were administrated with drug.
Health status and death situation of the mice were checked every day. In addition, the mice were examined regularly, including tumor growth, activity ability, diet, weight, eyes, hair and other abnormal behaviors, and tumor volume and weight were measured twice a week (on Tuesday and Friday).
Inhibitory effects of the compounds on tumor growth were evaluated according to the relationship between tumor volume and time. The tumor volume was measured by a vernier caliper, with the formula being TV=0.5a×b^2, wherein “a” was the long diameter of the tumor and “b” was the short diameter of the tumor. TGI was calculated by the difference between the median tumor volume of mice in the solvent group and the median tumor volume of mice in the drug group, and expressed as the percentage of median tumor volume in the solvent control group.
TGI was calculated by the following formula: TGI(TGI(%)=[1−(T23−T0)/(V23−V0)]×100)
Data were expressed by Means±Standard Error (Mean±SE), unless otherwise stated. The one way ANOVA test was used to compare whether the difference between the tumor volume in the treatment group and the tumor volume in the control group is statistically significant. P<0.05 was considered as statistically significant. The 5% DMSO+10% polyoxyl 15 hydroxystearate (Solutol)+85% 120 was used as the negative control.

[2] = Pharmacokinetic evaluation in mice (IV and PO); type: in vivo; details: mouse, plasma, female Balb/c mice; for bioavailability: peros (PO) 2 mg/kg vs IV 0.2 mg/kg, read-out: F (bioavailability)
Method: Experiment process: 0.1 mg/ml of the clear solution of each test compound in the corresponding solvents (as shown in Table 9) was injected into female Balb/c mice (fasting overnight. 7-9 weeks old) via the tail vein at a dose of […]. Blood samples ([…]) were collected from the jugular vein or the tail vein at the following time points: 0.0833 hour, 0.25 hour, 0.5 hour, 1.0 hour, 2.0 hours, 4.0 hours. 8.0 hours and 24 hours after intravenous administration. 0.2 mg/ml of the test compounds suspended in the corresponding solvents (as shown in Table 9) were given to the female Balb/c mice (fasting overnight. 7-9 weeks old) by gavage at a dose of 2 mg/kg. Blood samples (30 μL) were collected from the jugular vein or the tail vein of the female Balb/c mice at the following time points: 0.0833 hour, 0.25 hour, 0.5 hour, 1.0 hour, 2.0 hours, 4.0 hours, 6.0 hours, 8.0 hours and 24 hours after oral administration. The blood samples were placed in anticoagulant tubes containing EDTA-K2, and centrifuged to separate plasma. The plasma concentration was determined by LC-MS/MS, and a WinNonlin™ Version 6.3 pharmacokinetic software (Pharsight, Mountain View, CA) was used to calculate related pharmacokinetic parameters by a linear-log trapezoidal method in a non-compartmental model. [table]

RET (V804M) kinase = RET (V804M) kinase (Homo sapiens, UniProt P07949, V804M); assay: In-vitro enzyme activity test, RET (V804M) kinase; type: biochemical; details: ATP 30 μM; 10 concentrations 3 μM to 0.152 nM
Method: as §1, §2, §3, §4, §5, §6, §7, §8

[3] = 10 mg/kg (D0-D13)/5 mg/kg (D14-D17)/2,5 mg/kg (D18-D28) BID

Chain of RET kinase (P07949 29-1114): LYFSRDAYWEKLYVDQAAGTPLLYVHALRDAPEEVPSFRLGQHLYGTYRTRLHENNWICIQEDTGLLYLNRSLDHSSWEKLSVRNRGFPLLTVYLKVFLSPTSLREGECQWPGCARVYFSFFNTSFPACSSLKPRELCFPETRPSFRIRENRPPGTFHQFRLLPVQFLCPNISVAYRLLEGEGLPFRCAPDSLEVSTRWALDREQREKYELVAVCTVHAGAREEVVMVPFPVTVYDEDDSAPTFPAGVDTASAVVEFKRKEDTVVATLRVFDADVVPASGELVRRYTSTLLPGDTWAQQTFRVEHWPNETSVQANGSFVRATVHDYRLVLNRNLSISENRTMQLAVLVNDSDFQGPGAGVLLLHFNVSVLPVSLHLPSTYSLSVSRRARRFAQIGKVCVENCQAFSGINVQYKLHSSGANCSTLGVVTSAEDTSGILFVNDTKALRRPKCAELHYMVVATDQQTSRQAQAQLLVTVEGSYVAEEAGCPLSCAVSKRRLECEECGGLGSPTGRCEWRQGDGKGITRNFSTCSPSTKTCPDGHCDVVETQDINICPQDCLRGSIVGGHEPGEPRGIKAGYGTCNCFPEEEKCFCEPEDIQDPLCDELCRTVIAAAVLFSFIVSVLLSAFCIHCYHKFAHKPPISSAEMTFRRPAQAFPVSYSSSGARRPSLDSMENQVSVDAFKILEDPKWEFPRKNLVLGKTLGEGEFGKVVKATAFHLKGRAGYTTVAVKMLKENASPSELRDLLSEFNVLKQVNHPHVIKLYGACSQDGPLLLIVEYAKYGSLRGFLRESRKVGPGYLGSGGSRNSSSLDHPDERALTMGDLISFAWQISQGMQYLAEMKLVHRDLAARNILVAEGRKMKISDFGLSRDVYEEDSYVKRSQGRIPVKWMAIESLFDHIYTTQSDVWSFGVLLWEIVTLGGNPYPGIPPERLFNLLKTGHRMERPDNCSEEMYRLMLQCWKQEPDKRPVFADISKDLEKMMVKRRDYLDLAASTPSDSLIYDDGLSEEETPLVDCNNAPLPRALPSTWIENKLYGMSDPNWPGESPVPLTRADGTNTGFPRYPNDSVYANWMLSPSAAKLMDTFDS
Chain of RET (V804M) kinase (P07949 29-1114 V804M): as the sequence (P07949 29-1114) above, with V776M counted along it

In the case of COc1ccc(CN2C3CC2CN(c2ccc(-c4cc(N5CCN(C)CC5)cn5ncc(C#N)c45)cn2)C3)cn1 [Trifluoroacetate of compound 18], the pIC50 (RET kinase) was 9.34 and the “TGI% (tumor volume at Day 23 after drug administration)” value (“TGI%” for short) ([1]; 10 mg/kg (D0-D17)/5 mg/kg (D18-D28) QD) was 91%.

With COc1ccc(CN2C3CC2CN(c2cnc(-c4cc(C5=CCOCC5)cn5ncc(C#N)c45)cn2)C3)cn1 [Trifluoroacetate of compound 30] the bioavailability [2] was 96.4% and the “TGI%” value [1, 3] was 98%.

With COc1ccc(CN2C3CC2CN(c2ccc(-c4cc(C5=CCNCC5)cn5ncc(C#N)c45)cn2)C3)cn1 [Trifluoroacetate of compound 32] the pIC50 (RET kinase) was 8.96 and the pIC50 (RET (V804M) kinase) was 8.50.

With COc1ccc(CN2C3CC2CN(c2ccc(-c4cc(C5=CCOCC5)cn5ncc(C#N)c45)cn2)C3)cn1 [Trifluoroacetate of compound 33] the pIC50 (RET kinase) was 8.83 and the pIC50 (RET (V804M) kinase) was 8.13.

With COc1ccc(CN2C3CC2CN(c2ccc(-c4cc(C5=CCC(O)CC5)cn5ncc(C#N)c45)cn2)C3)cn1 (stereo not shown) [Trifluoroacetate of compound 39] the pIC50 (RET kinase) was 9.17 and the pIC50 (RET (V804M) kinase) was 8.64.

N#Cc1cnn2cc(N3CCCC3)cc(-c3ccc(N4CCC(C(=O)NC5CC(F)(F)C5)CC4)nc3)c12 [Trifluoroacetate of compound 58] gave a pIC50 (RET kinase) of 8.74 and a pIC50 (RET (V804M) kinase) of 8.11.

With CC(C)(O)CNC(=O)C1CCN(c2ccc(-c3cc(N4CCCC4)cn4ncc(C#N)c34)cn2)CC1 [Trifluoroacetate of compound 60] the pIC50 (RET kinase) was 8.41 and the pIC50 (RET (V804M) kinase) was 7.70.

With CO[C@H]1C[C@@H](NC(=O)C2CCN(c3ccc(-c4cc(N5CCCC5)cn5ncc(C#N)c45)cn3)CC2)C1 [Trifluoroacetate of compound 61] the pIC50 (RET kinase) was 8.75 and the pIC50 (RET (V804M) kinase) was 8.05.

Compound COc1ccc(CN2CCN(c3ccc(-c4cc(N5CCCC5)cn5ncc(C#N)c45)cn3)CC2)cn1 [Trifluoroacetate of compound 63] has a pIC50 (RET kinase) of 8.80 and a pIC50 (RET (V804M) kinase) of 8.25.

For COc1ccc(CN2C3CC2CN(c2cnc(-c4cc(N5CC[C@H](F)C5)cn5ncc(C#N)c45)cn2)C3)cn1 [Trifluoroacetate of compound 66], the pIC50 (RET kinase) was 8.79 and the pIC50 (RET (V804M) kinase) was 8.12.

Work on COc1ccc(CN2C3CC2CN(c2cnc(-c4cc(N5CC[C@@H](F)C5)cn5ncc(C#N)c45)cn2)C3)cn1 [Trifluoroacetate of compound 67] yielded a pIC50 (RET kinase) of 8.96 and a pIC50 (RET (V804M) kinase) of 8.80.

In the case of COc1ccc(CN2C3CC2CN(c2ccc(-c4cc(N5CC[C@@H](F)C5)cn5ncc(C#N)c45)cn2)C3)cn1 [Trifluoroacetate of compound 68], the pIC50 (RET kinase) was 8.82 and the pIC50 (RET (V804M) kinase) was 8.83.

For COc1ccc(CN2C3CC2CN(c2ccc(-c4cc(N5CCC(F)(F)C5)cn5ncc(C#N)c45)cn2)C3)cn1 [Trifluoroacetate of compound 69], the pIC50 (RET kinase) was 8.84, the AUC(0-t) ([2]; intravenous injection (IV) 0.2 mg/kg) was 3.87 µM·h and the clearance ([2]; intravenous injection (IV) 0.2 mg/kg, read-out: Cl (plasma clearance)) was 1.3 mL/min/kg. The half-life ([2]; intravenous injection (IV) 0.2 mg/kg, read-out: T1/2 (half-life of elimination) (converted)) was 3.6 h, the Vd ([2]; intravenous injection (IV) 0.2 mg/kg, read-out: Vdds (volume of distribution at steady state)) was 0.42 L/kg and the bioavailability [2] was 74.7%. The AUC(0-t) ([2]; peros (PO) 2 mg/kg) was 29.6 µM·h, the Cmax ([2]; peros (PO) 2 mg/kg) was 3.63 µM and the Tmax ([2]; peros (PO) 2 mg/kg) was 4 h. The “TGI%” value [1, 3] was 99% and the pIC50 (RET (V804M) kinase) was 8.80.

For COc1ccc(CN2C3CC2CN(c2ccc(-c4cc(N5CCC(N(C)C)C5)cn5ncc(C#N)c45)cn2)C3)cn1 (stereo not shown) [Triftuoroacelate of compound 72], the pIC50 (RET kinase) was 8.18 and the pIC50 (RET (V804M) kinase) was 7.92.

In the case of N#Cc1cnn2cc(N3CCCC3)cc(-c3ccc(N4CCN(Cc5c(F)cccc5F)CC4)nc3)c12 [Triftuoroacetate of compound 57], the pIC50 (RET kinase) was 8.70 and the pIC50 (RET (V804M) kinase) was 8.09.

COc1ccc(CN2C3CC2CN(c2cnc(-c4cc(N5CCCC5)cn5ncc(C#N)c45)cn2)C3)cn1 [Triftuoroacetate of compound 64] showed a pIC50 (RET kinase) of 8.91 and a pIC50 (RET (V804M) kinase) of 8.57.

For COc1ccc(CN2C3CC2CN(c2cnc(-c4cc(N5CCC(F)(F)C5)cn5ncc(C#N)c45)cn2)C3)cn1 [Trill uoroacetale of compound 65], the pIC50 (RET kinase) was 9.18 and the pIC50 (RET (V804M) kinase) was 8.59.
